This note sets out measurements from US6034113A, “Derivatives of 1,3,4-oxadiazolone” (Bristol-Myers Squibb Company, priority 1999, dated 2000).

Molecules are shown by their SMILES.

The subject of series [1] is cloned mammalian (mSlo or hSlo) BK. As to the kind of experiment: BK-mediated outward current, two-electrode voltage clamp in Xenopus oocytes. It is filed as cell-based. The following applies: 1 μM; at least 5 oocytes; mSlo or hSlo expressed in Xenopus oocytes. As for the experimental part:
(§1) The ability of the compound of Example 1 to open BK channels and increase whole-cell outward (K^+) BK-mediated currents was assessed under voltage-clamp conditions by determining their ability to increase cloned mammalian (mSlo or hSlo) BK--mediated outward current heterologously expressed in Xenopus oocytes [Butler, A., et al., Science, 261, pp. 221-224 (1993); and Dworetzky, S. I., et al., Mol. Brain Res., 27, pp.189-193 (1994)]. The two BK constructs employed represent nearly structurally identical homologous proteins, and have proven to be pharmacologically identical in our tests. To isolate BK current from native (background, non-BK) current, the specific and potent BK channel-blocking toxin iberiotoxin (IBTX) [Galvez, A., et al., J. Biol. Chem, 265, pp. 11083-11090 (1990)] was employed at a supramaximal concentration (50 nM). The relative contribution of BK channels current to total outward current was determined by subtraction of the current remaining in the presence of IBTX (non-BK current) from the current profiles obtained in all other experimental conditions (control, drug, and wash). […]
(In two-electrode clamp one electrode senses voltage and the other passes current.)

Series [2] concerns non-BK native currents in the oocytes. As to the kind of experiment: Effect on non-BK native currents (IBTX-insensitive) in oocytes. The series is classed as cell-based, Xenopus. The following applies: at the tested concentration; current remaining in presence of 50 nM IBTX. How it is done: as §1
Series [3] relates to focal cerebral ischemia in the Wistar rat. Put plainly: Focal stroke model, permanent MCA/CCA occlusion. The settings on record: 1 mg/kg intravenously, single bolus two hours after MCA occlusion; measured 24 hours after MCAO; vs vehicle-treated (water) control. It is filed as in vivo. As for the experimental part:
To determine the ability of the compounds of the present invention to reduce cell loss resulting from neuronal ischemia, a standard focal cerebral ischemia is induced by permanent occlusion of the left middle cerebral artery (MCA) and common carotid artery (CCA) with one hour occlusion of the right CCA in the Wistar rat. The surgeries are performed using the sub-temporal approach of A. Tamura, et al., J. Cereb. Blood Flow Metab., 1, pp. 53-60, (1981) and its modifications [K. Osbome, et al., J. Neurol Neurosurg. Psychiatry, 50, pp. 402-410 (1987) and S. Menzies, et al., Neurosurgery, 31, pp. 100-107, (1992).]
The compound of Example 13 was evaluated in the focal stroke model involving permanent occlusion of the left MCA (MCAO) and CCA (CCAO) and temporary occlusion of the right CCA in the Wistar rat. This procedure results in a reliably large neocortical infarct volume that is measured by means of vital dye exclusion in serial slices through the brain 24 hours after MCAO. In the present test, compounds were administered using an i.v. or i.p. route of administration two hours after occlusion.

Series [4] is described as follows: Rapid screen of prodrug hydrolysis and drug release in plasma. It is filed as in vitro ADME. The following applies: 10 ug/mL in fresh rat plasma at 37° C.; stock 1 mg/mL in PEG-400; analysis 5 minutes after incubation. How it is done:
A rapid screen to determine the ability of prodrugs to hydrolyze and release the drug (compound of Example 1) is conducted as follows. A 1 mg/mL stock solution of the prodrug is prepared in distilled water or acetonitrile or PEG-400. Plasma from freshly collected rat or human blood is used in this assay. To 1 mL of plasma at 37° C. was added 10 μL of stock solution of prodrug and mixed gently. Immediately after the mixing, 100 μL of plasma was removed and quenched with 300 μL of acetontrile (Zero time sample). Samples were also obtained at 30 minutes and quenched immediately. The quenched samples were centrifuged to obtain a clear supernatant for analysis. The stock solution, T=0 and T=30 samples were analyzed by a HPLC assay that separates the drug from the prodrug. Based on the relative peak areas of prodrug and drug in these samples, different prodrugs are characterized as fast, moderate and slow release agents. For example, in this model, the compound of Example 13 was dissolved in PEG-400 at a concentration of 1 mg/mL and incubated at 10 ug/mL in fresh rat plasma at 37° C.

`O=c1oc(-c2ccc(C(F)(F)F)cc2)nn1Cc1cc(Cl)ccc1O` [Example 1, 3-[(5-Chloro-2-hydroxyphenyl)methyl]-5-[4-(trifluoromethyl)phenyl]-1,3,4-oxadiazol-2(3H)-one]: the “increase of BK current, % of control of IBTX-sensitive current” value in series [1] stood at 126%. For the same compound, the “effect on non-BK native currents in the oocytes” value in series [2] is given as “did not effect non-BK native currents”.
Take `C[N+](C)(C)CCCC(=O)OCOc1ccc(Cl)cc1Cn1nc(-c2ccc(C(F)(F)F)cc2)oc1=O` [Example 13, 3-[[[[4-Chloro-2-[[5-[4-(trifluoromethyl)phenyl]-2,3-dihydro-2-oxo-1,3,4oxadiazol-3-yl]methyl]phenoxy]methoxy]carbonyl]propyl]trimethylammonium methanesulfonate]: the “reduction of cortical infarct volume” value in series [3] was “about 17%”. The “conversion of prodrug to the compound of Example 1 in plasma” value in series [4] is recorded as “conversion of the compound of Example 13 to the compound of Example 1”.
